Measured values reported in patent US9347077B2, “Over-expression of a putative oxidoreductase (UcpA) for increasing furfural or 5-hydroxymethylfurfural tolerance” (UNIVERSITY OF FLORIDA RESEARCH FOUNDATION, INCORPORATED, priority 2011, dated 2016).

How the values were obtained:
Format in all cases: cell-based, Escherichia coli
LY180(pTrc99A) = assay: Furfural toxicity / MIC in tube cultures, vector control; conditions: Escherichia coli, 48 h, read-out: MIC of furfural
Experimental: (§1) Furfural toxicity was measured in tube cultures (13 mm by 100 mm) containing 4 ml of AM1 medium with 50 g liter^−1 xylose, 12.5 mg liter^−1 ampicillin, furfural, and other supplements as indicated (Miller et al., 2009a, b). Cultures were inoculated to an initial density of 22 mg dcw liter^−1. IPTG (0.1 mM) was included for fucO induction. Cell mass was measured at 550 nm after incubation for 48 h (37° C.). For cysteine supplement experiment, the culture condition was the same but included 0.1 mM cysteine as an amendment.
(§2) Derivatives of LY180 containing these plasmids were tested for furfural tolerance with (0.1 mM IPTG) and without IPTG induction using an MIC assay (Miller et al., 2009a; Miller et al., 2010; Wang et al., 2011b).

LY180 (pLOI4856) [1] = assay: Furfural toxicity / MIC in tube cultures, ucpA plasmid; conditions: Escherichia coli, 48 h, read-out: MIC of furfural
Experimental: as §1, §2

[2] = test system: XW137 (E. coli W ucpA::kan); assay: pH-controlled batch fermentation (10% xylose)
LY180 (pLOI4856) [3] = assay: In vivo (whole cell) furfural reduction; conditions: plasmid copies of ucpA; similar to the vector control
Experimental: In vivo furfural reduction was measured during incubation in AM1 medium containing 10 mM furfural and 50 g liter^−1 xylose. Cells were pre-incubated with chloramphenicol (40 mg liter^−1) for 1 h to arrest growth (0.88 mg dcw cells ml^−1), prior to the addition of furfural. Furfural concentration was measured as previously described using a Beckman spectrophotometer DU800 (Martinez et al., 2000b).

## O=Cc1ccco1 [furfural]
LY180(pTrc99A)
  MIC: 10 mM
LY180 (pLOI4856) [1]
  MIC: 15 mM
[2]; 8 mM furfural
  Cell Yield: 1.9 ± 0.1 g/L
  Furfural-dependent slow growth Duration: 16 ± 3 h
  Furfural-dependent slow growth μ: 0.11 ± 0.02 h⁻¹
[2]; 10 mM furfural
  Cell Yield: 1.9 ± 0.1 g/L
  Furfural-dependent slow growth Duration: 37 ± 2 h
  Furfural-dependent slow growth μ: 0.02 ± 0.01 h⁻¹
  μ Max: 0.12 ± 0.02 h⁻¹
LY180 (pLOI4856) [3]
  Whole-cell specific activity (furfural reductase): < 0.10 U mg dcw^−1
